In the oligonucleotide strings, read from the 5' end, every base follows the letter of its sugar. An asterisk marks phosphorothioate; unmarked linkages are phosphodiester. Other units and linkages are bracketed, terminal groups are in braces. A string of capitals states the bases alone. e = 2'-O-(2-methoxyethyl) (MOE); [5mC] = 5-methylcytosine; d = 2'-deoxy (DNA)
Key:
[1] = Cynomolgus monkeys: hematology assays (Example 29); assay type: in vivo
Description: Groups, each consisting of two male and three female monkeys, were injected subcutaneously with ISIS 416838, ISIS 416850, ISIS 416858, ISIS 416864, or ISIS 417002 in escalating doses. Antisense oligonucleotide was administered to the monkeys at 5 mg/kg three times per a week for week 1; 5 mg/kg twice per week for weeks 2 and 3; 10 mg/kg three times per week for week 4; 10 mg/kg twice per week for weeks 5 and 6; 25 mg/kg three times per week for week 7; and 25 mg/kg twice per week for weeks 8, 9, 10, 11, and 12. One control group, consisting of two male and three female monkeys, was injected subcutaneously with PBS according to the same dosing regimen. An additional experimental group, consisting of two male and three female monkeys, was injected subcutaneously with ISIS 416850 in a chronic, lower dose regimen. Antisense oligonucleotide was administered to the monkeys at 5 mg/kg three times per week for week 1; 5 mg/kg twice per week for week 2 and 3; 10 mg/kg three times per week for week 4; and 10 mg/kg twice per week for weeks 5 to 12. Body weights were measured weekly. Blood samples were collected 14 days and 5 days before the start of treatment and subsequently once per week for Factor XI protein activity analysis in plasma and measurement of various hematologic factors. On day 85, the monkeys were euthanized by exsanguination while under deep anesthesia, and organs harvested for further analysis.
The ISIS oligonucleotide, ISIS 416850, given with the chronic dose regimen is distinguished from the other oligonucleotides with an asterisk (*).

murine Factor XI mRNA = experiment: In vivo antisense inhibition of murine Factor XI: liver RNA analysis (Example 10); conditions: BALB/c mice, relative to PBS control
Description: Several antisense oligonucleotides targeted to murine Factor XI mRNA (GENBANK Accession No. NM_028066.1, incorporated herein as SEQ ID NO: 6) showing statistically significant dose-dependent inhibition from the in vitro study were evaluated in vivo. BALB/c mice were treated with ISIS 404057 ([…], target start site 487, incorporated herein as SEQ ID NO: 10) and ISIS 404071 ([…], target start site 869, incorporated herein as SEQ ID NO: 11).
BALB/c mice were injected with 5 mg/kg, 10 mg/kg, 25 mg/kg, or 50 mg/kg of ISIS 404057 or ISIS 404071 twice a week for 3 weeks. A control group of mice was injected with phosphate buffered saline (PBS) twice a week for 3 weeks. Mice were sacrificed 5 days after receiving the last dose. Whole liver was harvested for RNA analysis and plasma was collected for protein analysis.
RNA was extracted from liver tissue for real-time PCR analysis of Factor XI. […] Results are presented as percent inhibition of Factor XI, relative to control.

[2] = Arthritis Study B: liver and spleen weight, ALT, AST; assay type: in vivo; conditions: collagen-treated DBA/1J mice, 20 mg/kg s.c. twice a week for ten weeks
Description: In a group of 20 DBA/1J mice, 20 mg/kg of ISIS 404071 were injected subcutaneously twice a week for ten weeks. In a second group of 20 DBA/1J mice, 20 mg/kg of ISIS 404057 were injected subcutaneously twice a week for ten weeks. In a third control group of 20 DBA/1J mice, 20 mg/kg of ISIS 421208 were injected subcutaneously twice a week for ten weeks. Two control groups of 20 mice each were injected with PBS twice a week for ten weeks.
Mice in all groups were examined daily after day 30 after the first collagen injection for the visual appearance of arthritis in peripheral joints. The results in Table 22 are expressed as percent change compared to the PBS control except for the liver and spleen weight.

[3] = system: thrombin-antithrombin (TAT) complexes; experiment: Colitis Study D: TAT levels in colon; assay type: in vivo, Swiss Webb mice; conditions: for TAT levels in colon: DSS-treated mice
Description: In a first group of 8 Swiss Webb mice, 10 mg/kg of ISIS 404071 was injected subcutaneously twice a week for 3 weeks. In a second group of 8 Swiss Webb mice, 20 mg/kg of ISIS 404057 was subcutaneously injected twice a week for 3 weeks. In a third control group of 8 Swiss Webb mice, 40 mg/kg of ISISI 404057 was injected subcutaneously twice a week for 3 weeks. Two control groups of 8 mice each were injected with PBS twice a week for 3 weeks. After the oligonucleotide treatment, 4% DSS in water was administered ad libitum for 7 days to all the experimental groups and one PBS control group.
Mice with dextran sodium sulfate (DSS)-induced colitis have elevated level of thrombin-antithrombin (TAT) complexes in blood (Anthoni, C. et al., J. Exp. Med. 204: 1595-1601, 2007) that is also observed in patients with ulcerative colitis (Kume, K. et al., Intern Med. 2007. 46: 1323-9). The effect of antisense inhibition of Factor XI on TAT levels in the colon was evaluated (Thrombi-Anti-Thrombin III complex, Siemens Healthcare Diagnostics, Deerfield, Ill.) and the results are presented in Table 30.

[4] = Colitis Study F: plasma ALT, AST, BUN, CREAT, CHOL, TBIL; assay type: in vivo, Swiss Webb mice; conditions: DSS-treated mice, 50 mg/kg s.c. twice a week for 3 weeks
Description: In a first group of 8 Swiss Webb mice, 50 mg/kg of ISIS 404071 was injected subcutaneously twice a week for 3 weeks. Two control groups of 8 mice each were injected with PBS twice a week for 3 weeks. After the oligonucleotide treatment, 4% DSS in water was administered ad libitum for 7 days to the experimental group and one PBS control group. Mice were sacrificed at the end of the study on day 7 after DSS was administered.
Plasma levels of aminotransferases (ALT and AST), blood urea nitrogen (BUN), creatinine (CREAT), cholesterol (CHOL) and total bilirubin (TBIL) were measured after treatment and are shown in Table 47.

## ISIS 416850: gapmer of Table 8 (antisense eT*eG*e[5mC]*eA*e[5mC]*dA*dG*dT*dT*dT*d[5mC]*dT*dG*dG*d[5mC]*eA*eG*eG*e[5mC]*e[5mC])
[1]; day 8
  platelet count: 548000 µL⁻¹
[1]; day 8, chronic dose regimen (*)
  platelet count: 401000 µL⁻¹
[1]; day 15
  platelet count: 559000 µL⁻¹
[1]; day 15, chronic dose regimen (*)
  platelet count: 396000 µL⁻¹
[1]; day 22
  platelet count: 466000 µL⁻¹
[1]; day 22, chronic dose regimen (*)
  platelet count: 347000 µL⁻¹
[1]; day 29
  platelet count: 475000 µL⁻¹
[1]; day 29, chronic dose regimen (*)
  platelet count: 370000 µL⁻¹
[1]; day 36
  platelet count: 505000 µL⁻¹
[1]; day 36, chronic dose regimen (*)
  platelet count: 379000 µL⁻¹
[1]; day 43
  platelet count: 490000 µL⁻¹
[1]; day 43, chronic dose regimen (*)
  platelet count: 391000 µL⁻¹
[1]; day 50
  platelet count: 487000 µL⁻¹
[1]; day 50, chronic dose regimen (*)
  platelet count: 351000 µL⁻¹
[1]; day 57
  Monocytes: n.d. 3.2%
  platelet count: 528000 µL⁻¹
[1]; day 64
  Monocytes: n.d. 3.5%
  platelet count: 496000 µL⁻¹
[1]; day 71
  Monocytes: n.d. 4.7%
  platelet count: 465000 µL⁻¹
[1]; day 78
  Monocytes: n.d. 4.5%
  platelet count: 449000 µL⁻¹
[1]; day 85
  Monocytes: n.d. 3.5%
  platelet count: 458000 µL⁻¹
[1]; day −5
  platelet count: 573000 µL⁻¹
[1]; day −5, chronic dose regimen (*)
  platelet count: 434000 µL⁻¹
[1]; day −14
  platelet count: 528000 µL⁻¹
[1]; day −14, chronic dose regimen (*)
  platelet count: 387000 µL⁻¹

## TGGTAATCCACTTTCAGAGG (eT*eG*eG*eT*eA*dA*dT*d[5mC]*d[5mC]*dA*d[5mC]*dT*dT*dT*d[5mC]*eA*eG*eA*eG*eG) [ISIS 404071, 5-10-5 MOE gapmer targeting murine Factor XI, target start site 869]
Murine Factor XI mRNA; 5 mg/kg twice a week for 3 weeks
  % inhibition: 72%
Murine Factor XI mRNA; 10 mg/kg twice a week for 3 weeks
  % inhibition: 82%
Murine Factor XI mRNA; 25 mg/kg twice a week for 3 weeks
  % inhibition: 93%
Murine Factor XI mRNA; 50 mg/kg twice a week for 3 weeks
  % inhibition: 96%
[2]
  Liver ALT: 56.6
  Liver AST: 86.75
  Liver Weight as a % of Body Weight: 6.089%
  Spleen Weight as a % of Body Weight: 0.759 % of Body Weight
[3]; Colitis Study D
  TAT levels in the colon (in words): decreased in a dose-dependent manner
[3]; 10 mpk
  TAT levels in colon: 1.79 ng/mg protein
[3]; 20 mpk
  TAT levels in colon: 0.65 ng/mg protein
[3]; 40 mpk
  TAT levels in colon: 0.75 ng/mg protein
[4]
  Plasma ALT: 133.6 U/L
  Plasma AST: 339.3 U/L
  Plasma BUN: 29.5 mg/dL
  Plasma CHOL: 170.3 mg/dL
  Plasma TBIL: 0.7 mg/dL
